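Step 1: Grow cells in 96-well plates. Step 2: Expose to compound for 48 hours at 5 concentrations. Step 3: Interpolate endpoints linearly; if unreached, use highest concentration. Here, GI50 denotes the concentration required for 50% inhibition of growth. Definition used: TGI = concentration required for complete inhibition of growth.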
Experiments:
Assay in all cases: inhibition of tumour cell growth, NCI panel, 48 h; in the data active means GI50 below about 0.43 µM; inactive means the rest
[1] = system: 786-0 renal
[2] = system: A498 renal
[3] = system: A549 NSCLC
[4] = system: ACHN renal
[5] = system: BT-549 breast
[6] = system: CAKI-1 renal
[7] = system: CCRF-CEM leukemia
[8] = system: COLO 205 colon
[9] = system: DU-145 prostate
[10] = system: EKVX NSCLC
[11] = system: HCC-2998 colon
[12] = system: HCT-116 colon
[13] = system: HCT-15 colon
[14] = system: HL-60(TB) leukemia
[15] = system: HOP-62 NSCLC
[16] = system: HOP-92 NSCLC
[17] = system: HS 578T breast
[18] = system: HT29 colon
[19] = system: IGROV1 ovarian
[20] = system: K-562 leukemia
[21] = system: KM12 colon
[22] = system: LOX IMVI melanoma
[23] = system: M14 melanoma
[24] = system: MALME-3M melanoma
[25] = system: MCF7 breast
[26] = system: MDA-MB-231 breast
[27] = system: MDA-MB-435
[28] = system: MOLT-4 leukemia
[29] = system: NCI-H226 lung
[30] = system: NCI-H23 lung
[31] = system: NCI-H460 lung
[32] = system: NCI-H522 lung
[33] = system: NCI/ADR-RES ovarian
[34] = system: OVCAR-3 ovarian
[35] = system: OVCAR-4 ovarian
[36] = system: OVCAR-5 ovarian
[37] = system: OVCAR-8 ovarian
[38] = system: PC-3 prostate
[39] = system: RPMI-8226 leukemia
[40] = system: RXF 393 renal
[41] = system: SF-268 CNS
[42] = system: SF-295 CNS
[43] = system: SF-539 CNS
[44] = system: SK-MEL-2 melanoma
[45] = system: SK-MEL-28 melanoma
[46] = system: SK-MEL-5 melanoma
[47] = system: SK-OV-3 ovarian
[48] = system: SN12C renal
[49] = system: SNB-19 CNS
[50] = system: SNB-75 CNS
[51] = system: SW-620 colon
[52] = system: T-47D breast
[53] = system: TK-10 renal
[54] = system: U251 CNS
[55] = system: UACC-257 melanoma
[56] = system: UACC-62 melanoma
[57] = system: UO-31 renal

COc1cccc(-c2nc(-c3ccc(NC(=O)OC(C)C)cc3)[nH]c2-c2ccnc(Br)c2)c1
9.54 µM: TGI [30]
4.06 µM: TGI [14]
6.29 µM: TGI [2]
> 100 µM: TGI [1] | TGI [3] | TGI [4] | TGI [5] | TGI [6] | TGI [7] | TGI [8] | TGI [9] | TGI [11] | TGI [12] | TGI [15] | TGI [18] | TGI [19] | TGI [20] | TGI [21] | TGI [23] | TGI [26] | TGI [27] | TGI [31] | TGI [33] | TGI [34] | TGI [35] | TGI [36] | TGI [37] | TGI [38] | TGI [41] | TGI [45] | TGI [47] | TGI [48] | TGI [49] | TGI [50] | TGI [51] | TGI [53] | TGI [54] | TGI [55] | TGI [57]
10.3 µM: TGI [10]
8.15 µM: TGI [25]
4.79 µM: TGI [13]
9.01 µM: TGI [32]
5.83 µM: TGI [43]
7 µM: TGI [24]
4.87 µM: TGI [56]
7.03 µM: TGI [44]
87.5 µM: TGI [29]
1.69 µM: TGI [17]
56 µM: TGI [28]
inactive: GI50 [1] 0.974 µM | GI50 [2] 1.2 µM | GI50 [3] 2.96 µM | GI50 [4] 2.7 µM | GI50 [5] 2.19 µM | GI50 [6] 2.49 µM | GI50 [7] 2.22 µM | GI50 [8] 3.26 µM | GI50 [9] 3.33 µM | GI50 [10] 2.45 µM | GI50 [11] 2.71 µM | GI50 [12] 2.68 µM | GI50 [13] 1.19 µM | GI50 [14] 1.38 µM | GI50 [15] 2.92 µM | GI50 [16] 3.19 µM | GI50 [18] 2.37 µM | GI50 [19] 3.54 µM | GI50 [20] 1.88 µM | GI50 [21] 2.41 µM | GI50 [22] 1.49 µM | GI50 [23] 3.06 µM | GI50 [24] 2.23 µM | GI50 [25] 1.59 µM | GI50 [26] 3.85 µM | GI50 [27] 3.11 µM | GI50 [28] 1.64 µM | GI50 [29] 2.46 µM | GI50 [30] 2.61 µM | GI50 [31] 2.99 µM | GI50 [32] 2.48 µM | GI50 [33] 2.85 µM | GI50 [34] 2.83 µM | GI50 [35] 3.09 µM | GI50 [36] 4.43 µM | GI50 [37] 3.12 µM | GI50 [38] 2.62 µM | GI50 [41] 3.35 µM | GI50 [43] 1.53 µM | GI50 [44] 2.33 µM | GI50 [45] 2.55 µM | GI50 [46] 1.88 µM | GI50 [47] 3.85 µM | GI50 [48] 2.94 µM | GI50 [49] 3.19 µM | GI50 [50] 0.567 µM | GI50 [51] 3.32 µM | GI50 [52] 2.08 µM | GI50 [53] 3.61 µM | GI50 [54] 1.69 µM | GI50 [55] 3.15 µM | GI50 [56] 1.98 µM | GI50 [57] 2.51 µM
3.36 µM: TGI [22]
8.29 µM: TGI [16]
active: GI50 [17] 0.308 µM | GI50 [39] 0.389 µM | GI50 [40] 0.282 µM | GI50 [42] 0.256 µM
0.64 µM: TGI [42]
3.65 µM: TGI [46]
2.21 µM: TGI [39]
7.64 µM: TGI [52]
0.87 µM: TGI [40]
